# According to patent US20210177779A1, “COMBINATIONS OF OPIOIDS AND N-ACYLETHANOLAMINES” (SciSparc Ltd., priority 2015, published 2021):
# Legend:
# Mice, strain ICR [1] = assay: Open field (OF) test, 15 minute session of spontaneous activity
# Experimental: Open Field (OF) tests were performed as follows—Fifteen minutes after test item/vehicle administration, mice were placed at the center of an open field box (43×43×40 cm) between 9 AM and 5 PM. On each side of the open field box, two frames placed at 2 and 5 cm height with 16 photocell beams per side ensure movement detection. The computer defined grid lines that divided the open field into two compartments: margin and center. Several variables were recorded during a 15 minute session of spontaneous activity including: time spent moving, traveled distance, time spent and number of visits to the central compartment.
# Mice, strain ICR [2] = assay: Tail pinch test (modified Haffner's method); conditions: first test 15 min after dosing
smiles,measurement,setting,value
COc1ccc2c3c1O[C@H]1C(=O)CC[C@@]4(O)[C@@H](C2)N(C)CC[C@]314 [oxycodone],Total distance traveled compared to vehicle control group (1M),"Mice, strain ICR [1]; oxycodone 10 mg/kg IP (PEA 25 mg/kg where combined), dosed 15 min before test, 6M P<0.001, 8M P<0.05, FIG. 1, associated with irritation level",significantly higher
same,Average animal velocity compared to vehicle control group (1M),"Mice, strain ICR [1]; oxycodone 10 mg/kg IP (PEA 25 mg/kg where combined), total distance (cm) / total moving time (sec), 6M P<0.001, 8M P<0.05, FIG. 2, associated with uncontrolled movement and confusion",significantly higher
same,"Total distance traveled, effect of oxycodone (dose-dependent)","Mice, strain ICR [1]; oxycodone 5 and 10 mg/kg IP compared to vehicle 1M, FIG. 1",significantly increased
same,"Average animal velocity, effect of oxycodone (dose-dependent)","Mice, strain ICR [1]; oxycodone 5 and 10 mg/kg IP compared to vehicle 1M, FIG. 2",significantly increased
same,Time after administration at which the analgesic effect began,"Mice, strain ICR [2]; high dose oxycodone 10 mg/kg IP (PEA 25 mg/kg where combined), FIG. 3A",15 min
same,Time after administration at which the analgesic effect began,"Mice, strain ICR [2]; low dose oxycodone 5 mg/kg IP (PEA 25 mg/kg where combined), FIG. 3B",15 min
